Reference: PMC12281424, “A Rac-specific competitive inhibitor of guanine nucleotide binding reduces metastasis in triple-negative breast cancer” (Cell Reports Medicine, 2025)

Legend:
[1] = target: Flt4(h) (Homo sapiens, UniProt P35916); experiment: Kinase Profiler; format: biochemical
Procedure: (§3) The kinase profiler was performed by the company Eurofins (Discovery, Panlab and Cerep).

[2] = target: SNRK(h) (Homo sapiens, UniProt Q9NRH2); experiment: Kinase Profiler; format: biochemical
Procedure: as §3

[3] = target: GRK7(h) (Homo sapiens, UniProt Q8WTQ7); experiment: Kinase Profiler; format: biochemical
Procedure: (§4) Blood cell counts, kinase profiler, safety screen, bacterial cytotoxicity, Ames, micronucleus assays were performed by the company Eurofins (France). The kinase profiler was performed by the company Eurofins (Discovery, Panlab and Cerep).

[4] = target: T1, RAC1 P29S (Homo sapiens, UniProt P63000, P29S); experiment: RAC-GTP pull-down in transfected NIH-3T3 fibroblasts; format: cell-based; details: 10^-5 M
T1 construct: expressed in transfected cells; host or cells: NIH-3T3 fibroblasts
Procedure: (§1) Figure 4 A41 selectively impairs RAC protein activation (A) Representative surface plasmon resonance (SPR) sensograms of binding of immobilized RHOA or CDC42 with indicated increasing concentrations of A41 (N > 3). (B) Effect of A41 on GEF-stimulated RAC2, RHOG, RHOA, and CDC42 nucleotide exchange. Purified small G proteins were pre-loaded with GDP and then nucleotide exchange was monitored by the increase in fluorescence following mant-GTP binding in the absence and presence of A41 (5 μM) (N = 3). Kobs is expressed as mean ± SEM. ∗p < 0.001 vs. control. (C) Effect of A41 on RAC1 G30S activation. RAC1 G30S activation was monitored by the increase in fluorescence following mant-GTP binding in the absence and presence of A41 (5 μM). […] Data are expressed as mean ± SEM. (D) Immunoblot analysis and associated quantification of RAC-GTP level and total RAC expression in NIH-3T3 fibroblasts expressing RAC wild-type (RAC1 WT) or RAC1 oncomutants (RAC1 P29S and RAC1b) in the absence (Ctrl) and presence of A41 (10 μM). RAC activation was measured as the ratio of RAC-GTP to total RAC and expressed relative to Ctrl condition. […]
(§2) Pull-down assay using GST-PBD fusion proteins were performed on NIH-3T3 lysates to assess RAC1 activity as previously described.[63] The precipitated active RAC was subjected to SDS-PAGE and detected by immunoblot with anti-RAC1 antibody (BD biosciences) (dilution 1/1000).

[5] = target: T2, RAC1b (Homo sapiens, UniProt P63000); experiment: as above; format: cell-based; details: 10^-5 M
T2 construct: expressed in transfected cells; host or cells: NIH-3T3 fibroblasts
Procedure: as §1, §2

[6] = target: DCAMKL3(h) (Homo sapiens, UniProt Q9C098); experiment: Kinase Profiler; format: biochemical
Procedure: as §4

[7] = target: TTBK2(h) (Homo sapiens, UniProt Q6IQ55); experiment: Kinase Profiler; format: biochemical
Procedure: as §3

[8] = target: CaMKIIα(h) (Homo sapiens, UniProt Q9UQM7); experiment: Kinase Profiler; format: biochemical
Procedure: as §3

[9] = tested on: GABAA, Ro-15-1788, Hippocampus; experiment: Safety screen; format: binding, rat
Procedure: (§5) Blood cell counts, kinase profiler, safety screen, bacterial cytotoxicity, Ames, micronucleus assays were performed by the company Eurofins (France).

[10] = target: TSSK3(h) (Homo sapiens, UniProt Q96PN8); experiment: Kinase Profiler; format: biochemical
Procedure: as §3

[11] = target: Tie2(R849W)(h) (Homo sapiens, UniProt Q02763, R849W); experiment: Kinase Profiler; format: biochemical
Procedure: as §4

[12] = target: TBK1(h) (Homo sapiens, UniProt Q9UHD2); experiment: Kinase Profiler; format: biochemical
Procedure: as §4

[13] = target: Adrenergic β2 (Homo sapiens, UniProt P07550); experiment: Safety screen; format: binding
Procedure: as §4

[14] = target: IR(h) (Homo sapiens, UniProt P06213); experiment: Kinase Profiler; format: biochemical
Procedure: as §4

[15] = target: Plk1(h) (Homo sapiens, UniProt P53350); experiment: Kinase Profiler; format: biochemical
Procedure: as §3

[16] = target: GRK3(h) (Homo sapiens, UniProt P35626); experiment: Kinase Profiler; format: biochemical
Procedure: as §4

[17] = target: Opiate κ(OP2, KOP) (Homo sapiens, UniProt P41145); experiment: Safety screen; format: binding
Procedure: as §4

[18] = target: SAPK2a(h) (Homo sapiens, UniProt Q16539); experiment: Kinase Profiler; format: biochemical
Procedure: as §3

[19] = target: CRIK(h) (Homo sapiens, UniProt O14578); experiment: Kinase Profiler; format: biochemical
Procedure: as §3

[20] = target: LATS2(h) (Homo sapiens, UniProt Q9NRM7); experiment: Kinase Profiler; format: biochemical
Procedure: as §3

[21] = target: PPARγ (Homo sapiens, UniProt P37231); experiment: Safety screen; format: binding
Procedure: as §4

[22] = target: ROCK-II(h) (Homo sapiens, UniProt O75116); experiment: Kinase Profiler; format: biochemical
Procedure: as §4

[23] = target: PDGFRβ(h) (Homo sapiens, UniProt P09619); experiment: Kinase Profiler; format: biochemical
Procedure: as §3

[24] = target: cKit(h) (Homo sapiens, UniProt P10721); experiment: Kinase Profiler; format: biochemical
Procedure: as §4

[25] = target: Cannabinoid CB2 (Homo sapiens, UniProt P34972); experiment: Safety screen; format: binding
Sequence of Cannabinoid CB2 (P34972 whole entry): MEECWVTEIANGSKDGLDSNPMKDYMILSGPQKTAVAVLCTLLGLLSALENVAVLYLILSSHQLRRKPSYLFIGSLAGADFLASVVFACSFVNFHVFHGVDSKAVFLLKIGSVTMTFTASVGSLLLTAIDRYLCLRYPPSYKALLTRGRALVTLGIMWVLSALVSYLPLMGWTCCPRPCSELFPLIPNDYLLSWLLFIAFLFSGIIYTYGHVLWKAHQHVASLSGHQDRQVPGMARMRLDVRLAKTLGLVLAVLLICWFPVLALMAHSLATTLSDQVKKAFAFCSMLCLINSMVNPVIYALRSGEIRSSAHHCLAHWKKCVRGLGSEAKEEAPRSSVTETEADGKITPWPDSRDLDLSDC
Procedure: as §5

Sequence of Flt4(h) (P35916 25-1363): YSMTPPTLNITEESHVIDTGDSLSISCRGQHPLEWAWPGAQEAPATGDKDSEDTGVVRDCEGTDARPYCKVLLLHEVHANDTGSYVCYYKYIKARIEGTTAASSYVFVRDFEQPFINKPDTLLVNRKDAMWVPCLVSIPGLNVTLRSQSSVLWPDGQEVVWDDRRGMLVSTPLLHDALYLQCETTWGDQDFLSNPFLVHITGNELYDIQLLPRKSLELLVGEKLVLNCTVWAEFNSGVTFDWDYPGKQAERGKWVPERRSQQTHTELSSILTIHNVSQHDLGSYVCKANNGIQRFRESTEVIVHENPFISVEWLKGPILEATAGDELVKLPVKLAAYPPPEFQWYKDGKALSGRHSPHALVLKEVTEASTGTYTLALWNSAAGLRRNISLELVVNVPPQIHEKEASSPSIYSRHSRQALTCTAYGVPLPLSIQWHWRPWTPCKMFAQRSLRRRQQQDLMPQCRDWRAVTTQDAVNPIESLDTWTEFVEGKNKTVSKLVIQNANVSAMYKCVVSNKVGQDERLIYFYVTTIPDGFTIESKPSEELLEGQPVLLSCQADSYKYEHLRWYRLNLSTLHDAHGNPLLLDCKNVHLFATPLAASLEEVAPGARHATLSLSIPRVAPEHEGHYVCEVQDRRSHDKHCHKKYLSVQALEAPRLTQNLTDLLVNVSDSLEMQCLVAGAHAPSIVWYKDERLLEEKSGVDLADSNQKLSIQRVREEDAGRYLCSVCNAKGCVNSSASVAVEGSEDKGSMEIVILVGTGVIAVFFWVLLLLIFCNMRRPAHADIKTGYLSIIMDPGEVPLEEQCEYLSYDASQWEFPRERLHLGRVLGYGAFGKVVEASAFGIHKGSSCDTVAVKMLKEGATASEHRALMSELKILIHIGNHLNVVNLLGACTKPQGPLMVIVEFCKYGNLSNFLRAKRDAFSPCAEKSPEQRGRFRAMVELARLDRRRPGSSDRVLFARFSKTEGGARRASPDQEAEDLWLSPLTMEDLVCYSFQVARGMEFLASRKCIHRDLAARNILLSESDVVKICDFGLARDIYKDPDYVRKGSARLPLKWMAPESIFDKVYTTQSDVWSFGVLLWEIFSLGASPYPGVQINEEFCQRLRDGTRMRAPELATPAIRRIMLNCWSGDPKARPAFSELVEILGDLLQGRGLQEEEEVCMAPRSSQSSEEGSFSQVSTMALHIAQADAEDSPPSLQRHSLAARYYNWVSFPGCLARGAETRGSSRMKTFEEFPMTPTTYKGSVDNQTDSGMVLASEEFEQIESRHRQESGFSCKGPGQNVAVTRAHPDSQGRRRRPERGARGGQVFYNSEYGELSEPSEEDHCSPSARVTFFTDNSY
Sequence of GRK3(h) (P35626 whole entry): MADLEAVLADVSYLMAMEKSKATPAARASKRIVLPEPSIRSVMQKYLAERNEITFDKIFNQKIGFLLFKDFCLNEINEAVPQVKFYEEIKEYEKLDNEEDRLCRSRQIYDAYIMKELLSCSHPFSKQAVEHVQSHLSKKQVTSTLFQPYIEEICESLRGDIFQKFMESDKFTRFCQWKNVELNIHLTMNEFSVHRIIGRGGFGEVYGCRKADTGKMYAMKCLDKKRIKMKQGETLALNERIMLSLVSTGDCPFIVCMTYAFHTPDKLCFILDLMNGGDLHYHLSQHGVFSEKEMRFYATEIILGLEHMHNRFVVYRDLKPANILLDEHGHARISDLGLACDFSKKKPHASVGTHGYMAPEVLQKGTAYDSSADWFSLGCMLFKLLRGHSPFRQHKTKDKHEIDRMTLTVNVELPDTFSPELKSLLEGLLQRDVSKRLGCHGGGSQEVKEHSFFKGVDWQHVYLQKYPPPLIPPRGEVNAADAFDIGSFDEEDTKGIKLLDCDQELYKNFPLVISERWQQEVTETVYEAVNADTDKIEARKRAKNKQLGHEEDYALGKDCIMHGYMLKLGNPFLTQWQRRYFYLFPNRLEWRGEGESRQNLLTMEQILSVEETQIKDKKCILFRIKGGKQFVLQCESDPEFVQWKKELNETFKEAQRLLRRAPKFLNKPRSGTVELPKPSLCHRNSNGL
Sequence of TBK1(h) (Q9UHD2 whole entry): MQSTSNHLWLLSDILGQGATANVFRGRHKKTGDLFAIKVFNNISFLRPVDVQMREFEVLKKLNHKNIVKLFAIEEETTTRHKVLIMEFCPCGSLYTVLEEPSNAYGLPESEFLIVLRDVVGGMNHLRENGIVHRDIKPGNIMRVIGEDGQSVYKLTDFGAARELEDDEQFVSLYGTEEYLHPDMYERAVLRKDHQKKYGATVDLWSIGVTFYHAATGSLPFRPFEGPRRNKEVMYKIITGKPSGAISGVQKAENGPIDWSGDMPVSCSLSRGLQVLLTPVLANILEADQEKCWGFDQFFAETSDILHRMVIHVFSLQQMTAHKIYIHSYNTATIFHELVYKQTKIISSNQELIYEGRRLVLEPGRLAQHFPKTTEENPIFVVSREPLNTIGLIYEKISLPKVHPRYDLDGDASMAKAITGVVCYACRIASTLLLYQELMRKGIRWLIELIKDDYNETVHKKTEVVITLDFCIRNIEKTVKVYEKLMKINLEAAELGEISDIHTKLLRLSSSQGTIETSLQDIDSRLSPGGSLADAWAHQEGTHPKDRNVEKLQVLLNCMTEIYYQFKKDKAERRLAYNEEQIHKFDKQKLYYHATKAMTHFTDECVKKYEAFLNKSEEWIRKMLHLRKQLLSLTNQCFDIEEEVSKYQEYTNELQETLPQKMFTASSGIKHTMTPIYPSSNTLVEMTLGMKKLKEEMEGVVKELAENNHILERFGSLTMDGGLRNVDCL
Sequence of IR(h) (P06213 28-1382): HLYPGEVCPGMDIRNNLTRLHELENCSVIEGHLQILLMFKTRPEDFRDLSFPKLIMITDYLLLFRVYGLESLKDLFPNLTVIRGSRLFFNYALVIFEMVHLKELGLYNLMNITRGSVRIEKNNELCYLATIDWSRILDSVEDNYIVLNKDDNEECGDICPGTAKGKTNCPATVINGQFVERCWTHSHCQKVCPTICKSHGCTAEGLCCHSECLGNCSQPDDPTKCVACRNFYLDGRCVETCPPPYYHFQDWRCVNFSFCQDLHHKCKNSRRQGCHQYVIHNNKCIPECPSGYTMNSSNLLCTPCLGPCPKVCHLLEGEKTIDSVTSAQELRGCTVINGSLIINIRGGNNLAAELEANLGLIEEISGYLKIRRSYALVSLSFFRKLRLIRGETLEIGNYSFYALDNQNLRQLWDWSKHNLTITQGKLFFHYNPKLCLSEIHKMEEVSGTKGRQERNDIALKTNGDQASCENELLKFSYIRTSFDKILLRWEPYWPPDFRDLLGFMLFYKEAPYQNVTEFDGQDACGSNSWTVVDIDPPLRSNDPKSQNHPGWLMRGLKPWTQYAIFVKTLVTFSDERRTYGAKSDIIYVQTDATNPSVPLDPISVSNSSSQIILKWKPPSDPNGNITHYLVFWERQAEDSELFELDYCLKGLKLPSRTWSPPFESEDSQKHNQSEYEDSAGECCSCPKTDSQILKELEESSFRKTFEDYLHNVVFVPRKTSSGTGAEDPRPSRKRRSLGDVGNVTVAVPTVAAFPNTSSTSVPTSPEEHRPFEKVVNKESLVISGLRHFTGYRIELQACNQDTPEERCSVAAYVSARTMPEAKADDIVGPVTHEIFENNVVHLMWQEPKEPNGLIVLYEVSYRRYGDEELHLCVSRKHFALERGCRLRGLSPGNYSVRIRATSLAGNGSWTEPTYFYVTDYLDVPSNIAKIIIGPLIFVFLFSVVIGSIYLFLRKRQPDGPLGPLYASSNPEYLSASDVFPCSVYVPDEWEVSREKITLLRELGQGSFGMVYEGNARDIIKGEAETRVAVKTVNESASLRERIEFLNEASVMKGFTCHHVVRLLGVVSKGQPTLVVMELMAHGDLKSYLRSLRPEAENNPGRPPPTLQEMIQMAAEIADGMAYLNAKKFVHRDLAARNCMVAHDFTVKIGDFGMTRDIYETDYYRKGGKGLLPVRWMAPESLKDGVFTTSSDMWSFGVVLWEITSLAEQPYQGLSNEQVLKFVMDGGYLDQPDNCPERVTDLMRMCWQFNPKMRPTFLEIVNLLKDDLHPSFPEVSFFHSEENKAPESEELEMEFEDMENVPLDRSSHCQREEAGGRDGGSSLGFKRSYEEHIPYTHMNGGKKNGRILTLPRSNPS
Sequence of Adrenergic β2 (P07550 whole entry): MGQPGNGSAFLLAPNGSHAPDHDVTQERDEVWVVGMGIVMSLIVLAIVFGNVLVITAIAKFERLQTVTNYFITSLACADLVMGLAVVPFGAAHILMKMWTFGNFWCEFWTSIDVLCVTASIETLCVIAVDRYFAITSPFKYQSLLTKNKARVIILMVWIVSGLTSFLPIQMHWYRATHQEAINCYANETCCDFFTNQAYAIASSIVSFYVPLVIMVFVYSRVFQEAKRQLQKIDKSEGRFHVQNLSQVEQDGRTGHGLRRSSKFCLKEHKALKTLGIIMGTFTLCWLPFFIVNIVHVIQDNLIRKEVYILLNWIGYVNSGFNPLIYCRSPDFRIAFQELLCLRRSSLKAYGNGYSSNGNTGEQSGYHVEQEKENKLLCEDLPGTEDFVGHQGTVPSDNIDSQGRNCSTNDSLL

COc1ccc(OC)c(NS(=O)(=O)c2ccc(NC(=O)CCSc3ccc(C)cc3)cc2)c1 [Compound A41]
Activity(%) [1]: 92%
Activity(%) [2]: 123%
Activity(%) [3]: 100%
activity of RAC P29S (RAC-GTP) [4]: reduced the activity
activity of RAC1b (RAC-GTP) [5]: reduced the activity
Activity(%) [6]: 104%
Activity(%) [7]: 106%
Activity(%) [8]: 99%
% inh. [9]: -12%
Activity(%) [10]: 104%
Activity(%) [11]: 101%
Activity(%) [12]: 102%
% inh. [13]: 5%
Activity(%) [14]: 137%
Activity(%) [15]: 106%
Activity(%) [16]: 106%
% inh. [17]: 10%
Activity(%) [18]: 100%
Activity(%) [19]: 106%
Activity(%) [20]: 110%
% inh. [21]: -7%
Activity(%) [22]: 93%
Activity(%) [23]: 82%
Activity(%) [24]: 101%
% inh. [25]: 36%
